Reference: publication PMC3849007 (Journal of Experimental & Clinical Cancer Research : CR, 2013)

Assays:
[1] = system: duplex (D) DNA hairpin, 5'-biotin-CGA3T3C(CT)2GA3T3CG (DNA, hairpin) CGAAATTTCCTCTGAAATTTCG; experiment: surface plasmon resonance; conditions: 200 mM KCl; 10 mM HEPES, 3 mM EDTA, 0.01% P20, pH 7.4
[2] = system: h-Tel (anti-parallel) quadruplex; experiment: CD thermal unfolding of h-Tel quadruplex; assay type: binding, human; conditions: for CD study thermal stability ∆Tm: compared to h-Tel without bound ligand (Tm 70 ± 3); for CD study thermal stability Tm: h-Tel 4 μM with 3.5 mol.equiv. ligand, K+ solution, unfolding at 290 nm
Description: CD spectra were recorded on an Applied Photophysics Pi-Star-180 spectrophotometer (Applied Photophysics Ltd, Surrey, UK). The optical system was configured with a 75 W Xe lamp, circular light polarizer and end-mounted photomultiplier. The instrument had previously been calibrated with (D)-camphorsulfonic acid. Temperature was regulated using a Neslab RTE-300 circulating programmable water bath (Neslab Inc). CD spectra were recorded at 298 K in a 10 mm path length cell over a wavelength range of 215–345 nm in steps of either 1 0r 2 nm, with 3 nm entrance/exit slit widths: the number of counts was set to 10,000 with adaptive sampling set to 500,000. The spectra were corrected by subtracting the spectrum of the same buffer solution of 100 mM potassium chloride and 10 mM potassium phosphate at pH 7.0. Annealing and melting profiles were recorded using a thermoelectric temperature controller (Melcor) on 4 μM DNA samples with and without 3.5 mol.equiv. of ligands using 0.5 K temperature increments and a cooling or heating rate of 0.2 K/min over the temperature range 298-368 K.
This analysis was extended to examine the effects of ligand binding on thermal stability by measuring the unfolding curves at 290 nm of the complexes formed in K^+ solution, corresponding to the CD spectra shown in Figure 4a. Monitoring the thermal unfolding transition for h-Tel produces a sigmoidal unfolding curve with a transition mid-point Tm value of 72 ± 3°C (Figure 4c). All three ligands show significant effects in enhancing the stability of the quadruplex by shifting the Tm values to higher temperatures (∆Tm ~ 15-19°C compared to h-Tel without bound ligands) (Table 1).

[3] = system: Telomere dysfunction Induced Foci in BJ-EHLT fibroblasts; experiment: TIF analysis (γH2AX/TRF1 co-localization); assay type: cell-based, human; conditions: 24 hrs; for number of TIFs per nucleus: mean
Description: Cells were fixed in 2% formaldehyde and permeabilized in 0.25% Triton X100 in PBS for 5 min at room temperature. For immunolabeling, cells were incubated with primary antibody, then washed in PBS and incubated with the secondary antibodies. The following primary antibodies were used: pAb and mAb anti-TRF1 (Abcam Ltd.; Cambridge UK); mAb (Upstate, Lake Placid, NY) and pAb anti-γH2AX (Abcam). The following secondary antibody were used: TRITC conjugated Goat anti Rabbit, FITC conjugated Goat anti Mouse (Jackson ImmunoResearch Europe Ltd., Suffolk, UK). Fluorescence signals were recorded by using a Leica DMIRE2 microscope equipped with a Leica DFC 350FX camera and elaborated by a Leica FW4000 deconvolution software (Leica, Solms, Germany). This system permits to focus single planes inside the cell generating 3D high-resolution images. For quantitative analysis of γH2AX positivity, 200 cells on triplicate slices were scored. For TIF’s analysis, in each nucleus a single plane was analyzed and at least 50 nuclei per sample were scored.

[4] = system: h-Tel quadruplex (Q) DNA, 5'-biotin-d[AG3(T2AG3)3] (DNA, G4) AGGGTTAGGGTTAGGGTTAGGG; experiment: surface plasmon resonance; conditions: 200 mM KCl; 10 mM HEPES, 3 mM EDTA, 0.01% P20, pH 7.4
[5] = target: T1, human recombinant β2 adrenergic receptor (Homo sapiens, UniProt P07550); experiment: β2-adrenergic receptor binding assay (CHO expressing cells)
T1 construct: expressed in transfected cells; host or cells: CHO
T1 sequence (P07550 whole entry): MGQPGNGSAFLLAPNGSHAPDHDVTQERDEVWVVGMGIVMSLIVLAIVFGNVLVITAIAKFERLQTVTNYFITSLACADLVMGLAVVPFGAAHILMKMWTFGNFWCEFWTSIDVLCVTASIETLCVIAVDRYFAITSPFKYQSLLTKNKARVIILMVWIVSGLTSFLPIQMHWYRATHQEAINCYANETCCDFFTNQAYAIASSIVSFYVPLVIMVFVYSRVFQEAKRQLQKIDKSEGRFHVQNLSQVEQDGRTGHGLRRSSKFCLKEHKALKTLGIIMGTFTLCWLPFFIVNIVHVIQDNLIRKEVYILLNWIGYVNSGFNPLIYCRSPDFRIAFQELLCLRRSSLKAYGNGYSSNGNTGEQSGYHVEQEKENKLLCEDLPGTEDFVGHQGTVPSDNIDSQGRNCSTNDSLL
Description: For hERG study, HEK293 cells were cultured (1–7 days) in DMEM/GlutaMax-1 + 10% FBS and were plated on collagen-coated dishes (about 2×10^4 cells/dish). The cell was held at -80 mV. A 50-millisecond pulse to -40 mV was delivered to measure the leaking currents, which were subtracted from the tail currents online. […] This paradigm was delivered once every 5 seconds to monitor the current amplitude. After the current amplitude stabilized, the test compound was delivered to the extracellular medium by a rapid solution changer perfusion system. During perfusion, the cell was repetitively stimulated with the protocol described above, and the current amplitude was continuously monitored. Data were acquired and analyzed by using pClamp (Axon Instruments), and Excel (Microsoft), and are reported as mean and individual values. The degree of inhibition (%) was obtained by measuring the tail current amplitude before and after drug superfusion (the difference current was normalized to control and multiplied by 100 to obtain the percent of inhibition). […] The concentration-response relationship of each compound was constructed from the percentage reductions of current amplitude by sequential concentrations. β2-adrenergic receptor CHO expressing cells were used for the receptor inhibition assay as described. The results are expressed as a percent of inhibition of control specific binding (100 - (measured specific binding/control specific binding) × 100)) obtained in the presence of the test compounds. The specific ligand binding to the receptors is defined as the difference between the total binding and the nonspecific binding determined in the presence of an excess of unlabelled ligand. All the in-vivo experiments were carried out at the Regina Elena Cancer Institute.
Inhibition of receptor was reported as inhibition of control specific binding (100 - (measured specific binding/control specific binding) × 100) obtained in the presence of the test compounds.

SMILES	K [1]	CD study thermal stability ∆Tm [2]	CD study thermal stability Tm [2]	percentage of TIF-positive cells ([3]; cells with more than four γH2AX/TRF1 co-localizations)	number of TIFs per nucleus [3]	K [4]	B2 adrenergic % inhib. (10 μM) ([5]; 10 μM, inhibition of control specific binding, CHO cells)	inhibition at 1 µM ([5]; 1 μM, Cerep ExpresSProfile screen, read-out: % inhibition of ligand binding, β2 adrenergic receptor)	inhibition at 10 µM ([5]; 10 μM, inhibition of control specific binding, CHO cells, read-out: B2 adrenergic % inhib. (10 μM))
CC(=O)Nc1ccc2c(c1)c1cccc3c1c([n+]2C)-c1ccccc1N3C [Compound 3, 3-acetylamino-8,13-dimethyl-8H-quino[4,3,2-kl]-acridinium iodide]	700000 M⁻¹	15 °C	85 ± 3 °C	significant but less pronounced effect	six	8e+06 M⁻¹	29%		
Cc1cc2c3c([n+](C)c4ccc(F)cc4c3c1)-c1cc(F)ccc1N2C [Compound 1, 3,11-Difluoro-6,8,13-trimethyl-8H-quino[4,3,2-kl]acridinium metho-sulfate]	600000 M⁻¹	16 °C	86 ± 3 °C		ca. eight	8.3e+06 M⁻¹		> 95%	100%
